Data on 7 compounds can be found in patent US12297194B2, “N2-phenylpyrimidine-2,4-diamine compounds, and preparation methods and methods of use thereof” (BRIDGE BIOTHERAPEUTICS, INC., priority 2021, dated 2025).

Some results are limits rather than exact numbers.

What all share (format): cell-based, murine
One assay has as its target Ba/F3 EGFR Wild-type (Homo sapiens, UniProt P00533). The assay is described as follows: CellTiter-Glo cell viability, Ba/F3 EGFR wild-type cells. The conditions noted are these: 72 hours, read-out: Ba/F3 EGFR mutant cell (IC50, nM) WT. As for the experimental part: (§1) In order to evaluate an inhibitory ability on wild-type Ba/F3 EGFR and Ba/F3 EGFR mutations in Ba/F3 cell lines by the compounds of Formula 1, the experiment was carried out as described below.
(§2) The measurement of activities on Ba/F3 cells harboring wild-type EGFR and EGFR mutants by the compounds of the present invention were determined utilizing the CELLTITER-GLO™ system from Promega, as follows. The CELLTITER-GLO™ assay is a method for measuring the ATP present in cells to determine the cell viability. Ba/F3 EGFR wild-type and Ba/F3 EGFR L858R/C797S (L/C), Ba/F3 EGFR L858R/T790M/C797S (L/T/C), Ba/F3 EGFR Del19/T790M (D/T), Ba/F3 EGFR Del19/C797S (D/C), Ba/F3 EGFR Del19/T790M/C797S (D/T/C) mutant cell lines were maintained in RPMI1640, containing […], 1% penicillin-streptomycin, […] puromycin. Cells were grown in a humidified incubator at 37° C. with […].
(§3) The analysis of an EGFR inhibitory activity by the compounds was carried out in accordance with the analysis reaction recipe below.
(§4) 2500 cells/90 μL were seeded in 96 well cell culture plate, and after 24 hours, treated with the compounds represented by Formula 1 in concentrations of 0, 0.3, 0.9, 2.7, 8.2, 24.7, 74.1, 222.2, 666.7, 2000 (nM). After the reaction of 72 hours, the plate was incubated for 30 minutes at ambient temperature, and then, was further treated with 100 μL of the CELLTITER-GLO™ reagent and was shaken for 10 minutes at ambient temperature. Finally, measurement of the luminescence values were obtained using the SPECTRAMAX™ iD3 (Molecular Devices), and the IC50 values of the compound were analyzed using the GraphPad Prism program (version 9.0.2, GraphPad Software, Inc.).
On the technique in general: Cellular ATP, detected with luciferase, serves as a proxy for viable cell number.

For assay [1], the target named is Ba/F3 EGFR L858R/C797S mutants (Homo sapiens, UniProt P00533, C797S/L858R, cells depend on it). Put plainly: CellTiter-Glo cell viability, Ba/F3 EGFR L858R/C797S cells. The note with it: 72 hours, read-out: Ba/F3 EGFR mutant cell (IC50, nM) L/C. The method, then:
as §1, §2, §3, §4

For assay [2], the target named is Ba/F3 EGFR Del19/C797S mutants (Homo sapiens, UniProt P00533, C797S, cells depend on it, form not given). Put plainly: CellTiter-Glo cell viability, Ba/F3 EGFR Del19/C797S cells. The conditions noted are these: 72 hours, read-out: Ba/F3 EGFR mutant cell (IC50, nM) D/C. The method, then: as §1, §2, §3, §4
For assay [3], the target named is Ba/F3 EGFR L858R/T790M/C797S mutants (Homo sapiens, UniProt P00533, T790M/C797S/L858R, cells depend on it). The assay is described as follows: CellTiter-Glo cell viability, Ba/F3 EGFR L858R/T790M/C797S cells. The note with it: 72 hours, read-out: Ba/F3 EGFR mutant cell (IC50, nM) L/T/C. The method, then:
as §1, §2, §3, §4

Assay [4] addresses Ba/F3 EGFR Del19/T790M/C797S mutants (Homo sapiens, UniProt P00533, T790M/C797S, cells depend on it, form not given). Put plainly: CellTiter-Glo cell viability, Ba/F3 EGFR Del19/T790M/C797S cells. The conditions noted are these: 72 hours, read-out: Ba/F3 EGFR mutant cell (IC50, nM) D/T/C. As for the experimental part:
as §1, §2, §3, §4

The target of assay [5] is Ba/F3 EGFR Del19/T790M mutants (Homo sapiens, UniProt P00533, T790M, cells depend on it, form not given). The assay is described as follows: CellTiter-Glo cell viability, Ba/F3 EGFR Del19/T790M cells. The note with it: 72 hours, read-out: Ba/F3 EGFR mutant cell (IC50, nM) D/T. As for the experimental part: as §1, §2, §3, §4
Sequence of Ba/F3 EGFR Del19/T790M mutants (P00533 with tags, fused parts or gaps DEL746-750/T790M, form open): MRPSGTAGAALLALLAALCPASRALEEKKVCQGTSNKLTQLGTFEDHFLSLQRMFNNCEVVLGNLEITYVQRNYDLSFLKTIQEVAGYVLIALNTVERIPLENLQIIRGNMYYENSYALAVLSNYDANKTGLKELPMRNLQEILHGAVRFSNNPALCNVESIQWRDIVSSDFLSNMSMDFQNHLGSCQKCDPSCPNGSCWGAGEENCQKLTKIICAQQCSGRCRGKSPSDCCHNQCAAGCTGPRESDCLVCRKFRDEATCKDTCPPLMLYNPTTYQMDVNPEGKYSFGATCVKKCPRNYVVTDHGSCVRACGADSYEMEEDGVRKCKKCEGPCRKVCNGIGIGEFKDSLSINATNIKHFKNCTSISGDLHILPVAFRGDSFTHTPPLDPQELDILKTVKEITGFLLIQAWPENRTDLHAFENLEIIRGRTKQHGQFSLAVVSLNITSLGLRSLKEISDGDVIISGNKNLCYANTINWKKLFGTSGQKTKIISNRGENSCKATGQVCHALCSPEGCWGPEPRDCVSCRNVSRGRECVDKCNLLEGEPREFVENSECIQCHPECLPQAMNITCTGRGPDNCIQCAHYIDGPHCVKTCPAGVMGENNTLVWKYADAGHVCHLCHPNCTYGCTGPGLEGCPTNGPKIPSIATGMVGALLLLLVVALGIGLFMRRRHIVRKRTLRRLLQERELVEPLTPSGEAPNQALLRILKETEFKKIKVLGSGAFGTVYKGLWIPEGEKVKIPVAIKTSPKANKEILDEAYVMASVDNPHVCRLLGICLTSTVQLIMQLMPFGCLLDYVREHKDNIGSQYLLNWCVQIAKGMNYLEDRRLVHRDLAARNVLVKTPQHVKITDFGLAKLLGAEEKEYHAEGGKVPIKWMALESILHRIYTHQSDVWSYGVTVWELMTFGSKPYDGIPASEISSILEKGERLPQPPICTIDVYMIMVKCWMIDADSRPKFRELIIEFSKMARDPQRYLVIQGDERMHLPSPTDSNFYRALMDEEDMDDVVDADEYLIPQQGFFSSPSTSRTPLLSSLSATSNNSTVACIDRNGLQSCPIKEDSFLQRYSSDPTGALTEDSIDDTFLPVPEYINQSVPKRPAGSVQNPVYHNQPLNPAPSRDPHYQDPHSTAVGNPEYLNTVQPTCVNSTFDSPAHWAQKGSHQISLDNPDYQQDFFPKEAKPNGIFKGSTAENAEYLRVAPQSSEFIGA

Sequence of Ba/F3 EGFR L858R/T790M/C797S mutants (P00533 whole entry T790M/C797S/L858R): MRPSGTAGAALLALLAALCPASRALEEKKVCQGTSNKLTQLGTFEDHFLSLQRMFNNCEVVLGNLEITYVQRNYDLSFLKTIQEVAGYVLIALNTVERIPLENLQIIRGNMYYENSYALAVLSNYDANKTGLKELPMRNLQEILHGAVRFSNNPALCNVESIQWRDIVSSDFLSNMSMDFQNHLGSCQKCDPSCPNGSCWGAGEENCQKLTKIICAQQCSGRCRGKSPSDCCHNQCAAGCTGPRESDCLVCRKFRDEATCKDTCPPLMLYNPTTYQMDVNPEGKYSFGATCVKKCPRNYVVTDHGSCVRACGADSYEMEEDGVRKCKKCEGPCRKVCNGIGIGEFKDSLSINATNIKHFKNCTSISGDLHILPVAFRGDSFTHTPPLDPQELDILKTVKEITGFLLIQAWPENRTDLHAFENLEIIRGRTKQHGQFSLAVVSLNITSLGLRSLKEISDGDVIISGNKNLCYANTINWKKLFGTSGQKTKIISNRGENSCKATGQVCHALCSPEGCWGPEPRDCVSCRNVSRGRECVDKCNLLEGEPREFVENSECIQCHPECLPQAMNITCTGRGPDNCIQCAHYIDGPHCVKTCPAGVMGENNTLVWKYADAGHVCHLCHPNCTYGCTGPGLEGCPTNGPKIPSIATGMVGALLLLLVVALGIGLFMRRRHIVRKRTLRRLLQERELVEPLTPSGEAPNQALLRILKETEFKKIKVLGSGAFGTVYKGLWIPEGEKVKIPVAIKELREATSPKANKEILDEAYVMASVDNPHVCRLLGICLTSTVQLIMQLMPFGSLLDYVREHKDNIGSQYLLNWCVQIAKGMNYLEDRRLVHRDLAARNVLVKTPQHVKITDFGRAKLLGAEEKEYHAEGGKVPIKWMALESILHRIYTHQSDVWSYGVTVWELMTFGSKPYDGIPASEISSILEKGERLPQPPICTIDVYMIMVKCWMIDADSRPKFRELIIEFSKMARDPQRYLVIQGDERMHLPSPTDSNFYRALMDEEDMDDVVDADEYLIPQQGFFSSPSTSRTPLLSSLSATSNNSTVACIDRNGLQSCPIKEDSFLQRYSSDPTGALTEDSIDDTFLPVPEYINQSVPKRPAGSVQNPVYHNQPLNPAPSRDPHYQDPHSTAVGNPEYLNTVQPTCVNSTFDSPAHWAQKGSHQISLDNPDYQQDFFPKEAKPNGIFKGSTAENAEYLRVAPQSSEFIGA
Sequence of Ba/F3 EGFR L858R/C797S mutants (P00533 whole entry C797S/L858R): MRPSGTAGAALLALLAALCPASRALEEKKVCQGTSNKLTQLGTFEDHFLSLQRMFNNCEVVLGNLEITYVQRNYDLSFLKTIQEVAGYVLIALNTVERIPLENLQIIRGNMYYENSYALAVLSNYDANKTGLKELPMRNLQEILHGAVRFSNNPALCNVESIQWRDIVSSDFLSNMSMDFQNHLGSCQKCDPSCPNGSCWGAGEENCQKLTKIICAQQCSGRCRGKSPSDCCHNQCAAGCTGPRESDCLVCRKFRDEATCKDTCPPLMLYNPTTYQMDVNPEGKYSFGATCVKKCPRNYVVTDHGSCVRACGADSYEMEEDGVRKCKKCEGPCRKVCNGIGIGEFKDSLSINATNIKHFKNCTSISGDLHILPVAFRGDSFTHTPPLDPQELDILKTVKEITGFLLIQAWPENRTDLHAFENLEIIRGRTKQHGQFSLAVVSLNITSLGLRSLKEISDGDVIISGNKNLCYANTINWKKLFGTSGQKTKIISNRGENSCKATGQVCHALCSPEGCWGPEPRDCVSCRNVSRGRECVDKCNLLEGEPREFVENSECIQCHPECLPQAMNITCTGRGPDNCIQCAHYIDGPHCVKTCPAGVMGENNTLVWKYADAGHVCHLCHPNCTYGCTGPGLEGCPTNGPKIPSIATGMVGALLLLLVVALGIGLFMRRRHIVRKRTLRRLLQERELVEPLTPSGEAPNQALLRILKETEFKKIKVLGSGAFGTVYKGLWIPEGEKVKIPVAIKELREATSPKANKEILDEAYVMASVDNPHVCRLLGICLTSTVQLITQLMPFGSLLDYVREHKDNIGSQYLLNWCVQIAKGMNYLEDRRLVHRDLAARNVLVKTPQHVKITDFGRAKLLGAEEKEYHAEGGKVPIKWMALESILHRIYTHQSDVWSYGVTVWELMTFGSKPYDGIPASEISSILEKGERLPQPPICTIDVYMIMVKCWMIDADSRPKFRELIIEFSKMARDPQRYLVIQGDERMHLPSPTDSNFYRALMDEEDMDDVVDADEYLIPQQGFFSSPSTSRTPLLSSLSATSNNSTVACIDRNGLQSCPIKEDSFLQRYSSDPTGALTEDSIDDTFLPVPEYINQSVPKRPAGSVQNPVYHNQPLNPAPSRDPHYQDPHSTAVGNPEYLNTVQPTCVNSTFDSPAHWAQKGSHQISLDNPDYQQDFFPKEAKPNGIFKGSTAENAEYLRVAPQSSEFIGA
Sequence of Ba/F3 EGFR Del19/T790M/C797S mutants (P00533 with tags, fused parts or gaps DEL746-750/T790M/C797S, form open): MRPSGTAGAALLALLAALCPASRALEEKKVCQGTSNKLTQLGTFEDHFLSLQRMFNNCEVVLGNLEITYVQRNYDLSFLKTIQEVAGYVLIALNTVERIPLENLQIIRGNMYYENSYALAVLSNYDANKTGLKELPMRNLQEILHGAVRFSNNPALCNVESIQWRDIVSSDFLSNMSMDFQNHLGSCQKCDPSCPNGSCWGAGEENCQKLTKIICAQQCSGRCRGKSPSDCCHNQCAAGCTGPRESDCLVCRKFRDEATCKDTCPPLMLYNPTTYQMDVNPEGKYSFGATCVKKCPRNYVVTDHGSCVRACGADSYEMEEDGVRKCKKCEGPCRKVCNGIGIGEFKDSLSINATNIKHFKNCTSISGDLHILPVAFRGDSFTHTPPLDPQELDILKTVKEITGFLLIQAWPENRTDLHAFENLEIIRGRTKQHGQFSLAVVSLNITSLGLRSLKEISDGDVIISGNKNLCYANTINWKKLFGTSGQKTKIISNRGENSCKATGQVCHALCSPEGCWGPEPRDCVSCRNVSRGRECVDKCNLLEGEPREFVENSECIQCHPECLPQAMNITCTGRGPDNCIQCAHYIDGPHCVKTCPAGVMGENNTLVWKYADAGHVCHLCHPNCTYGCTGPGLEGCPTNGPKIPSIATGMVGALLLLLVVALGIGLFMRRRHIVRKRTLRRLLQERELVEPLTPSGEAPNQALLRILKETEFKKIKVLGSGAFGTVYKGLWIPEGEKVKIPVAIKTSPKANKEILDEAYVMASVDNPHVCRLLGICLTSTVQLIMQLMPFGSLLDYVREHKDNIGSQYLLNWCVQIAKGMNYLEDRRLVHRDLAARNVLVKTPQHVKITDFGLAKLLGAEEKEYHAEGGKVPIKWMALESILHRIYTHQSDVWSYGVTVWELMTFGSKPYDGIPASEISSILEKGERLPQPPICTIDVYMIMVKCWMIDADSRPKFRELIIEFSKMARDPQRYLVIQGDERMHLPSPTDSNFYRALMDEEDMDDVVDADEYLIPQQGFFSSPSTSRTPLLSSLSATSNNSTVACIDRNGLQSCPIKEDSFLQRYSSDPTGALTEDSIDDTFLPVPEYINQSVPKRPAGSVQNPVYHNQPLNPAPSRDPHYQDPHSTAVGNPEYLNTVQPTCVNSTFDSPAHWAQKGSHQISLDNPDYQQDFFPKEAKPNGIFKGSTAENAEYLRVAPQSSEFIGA

`CCc1cc(Nc2ncc(Cl)c(Nc3ccc(OC)c(OC)c3N(C)S(C)(=O)=O)n2)c(OC)cc1N1CCC(N2CCOCC2)CC1` [Example C32, N-(6-((5-chloro-2-((5-ethyl-2-methoxy-4-(4-morpholinopiperidin-1-yl)phenyl)amino)pyrimidin-4-yl)amino)-2,3-dimethoxyphenyl)-N-methylmethanesulfonamide]: the GI50 came out at 1920 nM on Ba/F3 EGFR Wild-type; 82 nM in assay [1]; 79 nM in assay [2]; 191 nM in assay [3]; 46 nM in assay [4]; 176 nM in assay [5].

Turning to `CCc1cc(Nc2ncc(Cl)c(Nc3ccc4nccnc4c3N(C)S(C)(=O)=O)n2)c(OC)cc1N1CCC(N2CCN(C)CC2)CC1` [Example A38, N-(6-((5-chloro-2-((5-ethyl-2-methoxy-4-(4-(4-methylpiperazin-1-yl)piperidin-1-yl)phenyl)amino)pyrimidin-4-yl)amino)quinoxalin-5-yl)-N-methylmethanesulfonamide], the GI50 at Ba/F3 EGFR Wild-type stood at 347 nM; in assay [1] it was 18 nM; in assay [3] it was 33 nM; in assay [4], 5 nM; in assay [5], 5 nM.

As to `COc1cc(N2CC3(CNC3)C2)ccc1Nc1ncc(Cl)c(Nc2ccc3nccnc3c2NS(C)(=O)=O)n1` [Example D7, N-(6-((5-chloro-2-((2-methoxy-4-(2,6-diazaspiro[3.3]heptan-2-yl)phenyl)amino)pyrimidin-4-yl)amino)quinoxalin-5-yl)methanesulfonamide], the GI50 (on Ba/F3 EGFR Wild-type; in assay [1]; in assay [3]; in assay [4]; in assay [5]) was over 2000 nM throughout.

Take `COc1cc(N2CCC(N3CCN(C)CC3)CC2)c(C)cc1Nc1ncc(Cl)c(Nc2ccc3nccnc3c2NS(=O)(=O)C2CC2)n1` [Example A26, N-(6-((5-chloro-2-((2-methoxy-5-methyl-4-(4-(4-methylpiperazin-1-yl)piperidin-1-yl)phenyl)amino)pyrimidin-4-yl)amino)quinoxalin-5-yl)cyclopropanesulfonamide]: the GI50 on Ba/F3 EGFR Wild-type was determined as 1280 nM; in assay [1], 163 nM; in assay [2] it was 72 nM; in assay [3], 107 nM; in assay [4], 79 nM.

As for `COc1cc(N2CCOCC2)c(C)cc1Nc1ncc(Br)c(Nc2ccc3nccnc3c2NS(C)(=O)=O)n1` [Example B10, N-(6-((5-bromo-2-((2-methoxy-5-methyl-4-morpholinophenyl)amino)pyrimidin-4-yl)amino)quinoxalin-5-yl)methanesulfonamide], the GI50 stood at 858 nM at Ba/F3 EGFR Wild-type; 678 nM in assay [1]; 537 nM in assay [2]; 584 nM in assay [3]; 252 nM in assay [4].

Consider `CNc1cc(N2CCC(N3CCN(C)CC3)CC2)c(C)cc1Nc1ncc(Cl)c(Nc2ccc3nccnc3c2NS(C)(=O)=O)n1` [Example A13, N-(6-((5-chloro-2-((5-methyl-2-(methylamino)-4-(4-(4-methylpiperazin-1-yl)piperidin-1-yl)phenyl)amino)pyrimidin-4-yl)amino)quinoxalin-5-yl)methanesulfonamide], for which the GI50 is over 2000 nM on Ba/F3 EGFR Wild-type; 646 nM in assay [1]; 265 nM in assay [2]; 338 nM in assay [3]; 109 nM in assay [4].

With `CCc1cc(Nc2ncc(Br)c(Nc3ccc4nccnc4c3NS(C)(=O)=O)n2)c(OC)cc1N1CCC(N2CCN(C)CC2)CC1` [Example A8, N-(6-((5-bromo-2-((5-ethyl-2-methoxy-4-(4-(4-methylpiperazin-1-yl)piperidin-1-yl)phenyl)amino)pyrimidin-4-yl)amino)quinoxalin-5-yl)methanesulfonamide], the GI50 was 919 nM on Ba/F3 EGFR Wild-type; 147 nM in assay [1]; 38 nM in assay [2]; 18 nM in assay [3]; 6 nM in assay [4].
